Results reported in the NIST ThermoML archive (doi:10.1021/je201283n).

Conditions: Liquid, isochoric method

CCCCn1cc[n+](C)c1.N#CN=C=[N-] [1-butyl-3-methylimidazolium dicyanamide]
Conditions	mass density [kg/m3]
237.2 K, 1327.9 kPa	1099.45
242.14 K, 9986.9 kPa	1099.05
247.77 K, 20189 kPa	1098.57
248.09 K, 1170.5 kPa	1092.06
253.33 K, 10197 kPa	1091.63
253.33 K, 29961 kPa	1098.11
259.12 K, 20009 kPa	1091.16
259.17 K, 39931 kPa	1097.63
259.68 K, 1030 kPa	1084.28
265.12 K, 50114 kPa	1097.14
265.24 K, 10141 kPa	1083.84
265.25 K, 30347 kPa	1090.66
270.55 K, 18709 kPa	1083.42
271.07 K, 59859 kPa	1096.65
271.13 K, 39925 kPa	1090.18
273.28 K, 2767.5 kPa	1075.98
277.42 K, 50079 kPa	1089.67
277.92 K, 9955.1 kPa	1075.61
277.96 K, 30503 kPa	1082.82
277.98 K, 10008 kPa	1075.61
283.67 K, 59955 kPa	1089.17
284.14 K, 40138 kPa	1082.33
284.15 K, 1038.8 kPa	1068.31
284.23 K, 1148.3 kPa	1068.31
284.47 K, 20074 kPa	1075.1
291.05 K, 29671 kPa	1074.21
291.05 K, 30032 kPa	1074.57
291.06 K, 11299 kPa	1067.78
291.44 K, 51356 kPa	1081.75
296.97 K, 19796 kPa	1067.32
297.26 K, 60158 kPa	1081.29
298.18 K, 40270 kPa	1073.65
298.18 K, 40659 kPa	1074.02
299.21 K, 3719.1 kPa	1059.78
303.97 K, 10315 kPa	1059.42
303.97 K, 30176 kPa	1066.78
304.81 K, 50325 kPa	1073.5
310.98 K, 40117 kPa	1066.24
311.01 K, 20033 kPa	1058.89
311.34 K, 59700 kPa	1072.99
311.37 K, 676.6 kPa	1050.98
317.98 K, 49917 kPa	1065.7
318.27 K, 9911 kPa	1050.46
318.27 K, 30183 kPa	1058.34
325.32 K, 60007 kPa	1065.14
325.56 K, 39796 kPa	1057.8
326 K, 19921 kPa	1049.89
326.53 K, 876.3 kPa	1041.71
333.12 K, 50157 kPa	1057.22
333.67 K, 9918.1 kPa	1041.19
333.67 K, 30169 kPa	1049.32
340.8 K, 60149 kPa	1056.64
341.31 K, 39980 kPa	1048.75
341.77 K, 20126 kPa	1040.59
342.41 K, 781.5 kPa	1031.94
349.32 K, 50089 kPa	1048.15
349.8 K, 9629.2 kPa	1031.41
349.8 K, 30031 kPa	1040.31

CCn1cc[n+](C)c1.N#CN=C=[N-] [1-ethyl-3-methylimidazolium dicyanamide]
Conditions	mass density [kg/m3]
256.82 K, 20357 kPa	1142.71
256.92 K, 29975 kPa	1145.41
256.97 K, 10611 kPa	1139.49
257.12 K, 1250.8 kPa	1136.35
261.97 K, 9950.2 kPa	1135.94
262.11 K, 19886 kPa	1139.04
262.33 K, 39980 kPa	1144.93
262.46 K, 619.6 kPa	1132.49
267.67 K, 20023 kPa	1135.45
267.67 K, 39943 kPa	1141.75
267.7 K, 9753.2 kPa	1132.18
267.7 K, 9894 kPa	1132.04
267.7 K, 29879 kPa	1138.56
267.7 K, 29968 kPa	1138.56
267.7 K, 49706 kPa	1144.45
267.71 K, 20196 kPa	1135.44
267.71 K, 40066 kPa	1141.75
267.71 K, 49662 kPa	1144.45
268.06 K, 649.7 kPa	1128.69
273.25 K, 29805 kPa	1134.96
273.34 K, 49967 kPa	1141.26
273.4 K, 39951 kPa	1138.06
273.49 K, 19943 kPa	1131.55
273.51 K, 10041 kPa	1128.22
273.55 K, 60051 kPa	1143.95
274.21 K, 775.7 kPa	1124.56
278.57 K, 59071 kPa	1140.8
279.2 K, 40050 kPa	1134.45
279.22 K, 50024 kPa	1137.55
279.41 K, 30010 kPa	1131.04
279.59 K, 10349 kPa	1124.23
279.65 K, 9960.6 kPa	1124.1
279.66 K, 20569 kPa	1127.7
280.01 K, 1016.8 kPa	1120.72
280.04 K, 1077.6 kPa	1120.72
285.08 K, 50002 kPa	1133.94
285.13 K, 60064 kPa	1137.04
285.39 K, 9816.5 kPa	1120.27
285.42 K, 40116 kPa	1130.53
285.43 K, 19560 kPa	1123.61
285.44 K, 19459 kPa	1123.61
285.45 K, 9814.9 kPa	1120.27
285.5 K, 20153 kPa	1123.73
285.51 K, 30235 kPa	1127.2
286.62 K, 2009 kPa	1116.68
291.09 K, 59995 kPa	1133.42
291.45 K, 50059 kPa	1130.01
291.47 K, 9754 kPa	1116.28
291.47 K, 50178 kPa	1130.13
291.51 K, 40153 kPa	1126.69
291.61 K, 19904 kPa	1119.75
291.79 K, 29944 kPa	1123.08
297.62 K, 60101 kPa	1129.48
297.75 K, 50232 kPa	1126.16
297.91 K, 20011 kPa	1115.75
297.98 K, 30141 kPa	1119.22
298.08 K, 1020.2 kPa	1108.78
298.16 K, 103.4 kPa	1108.35
298.16 K, 40265 kPa	1122.54
303.94 K, 60074 kPa	1125.65
304.2 K, 39942 kPa	1118.71
304.23 K, 49724 kPa	1122.03
304.28 K, 29918 kPa	1115.22
304.34 K, 10634 kPa	1108.27
310.52 K, 20049 kPa	1107.77
310.57 K, 59616 kPa	1121.51
310.65 K, 49941 kPa	1118.17
310.81 K, 40003 kPa	1114.68
311.24 K, 1092 kPa	1100.23
317.17 K, 9765 kPa	1099.76
317.19 K, 29905 kPa	1107.23
317.23 K, 59899 kPa	1117.62
317.44 K, 50073 kPa	1114.13
324.19 K, 60082 kPa	1113.57
324.28 K, 20103 kPa	1099.19
325.02 K, 1127.1 kPa	1091.44
331.28 K, 30008 kPa	1098.63
331.29 K, 9862.4 kPa	1090.95
337.92 K, 60055 kPa	1105.54
338.39 K, 40023 kPa	1098.06
338.74 K, 20149 kPa	1090.36
339.67 K, 1074 kPa	1082.2
345.69 K, 50073 kPa	1097.48
346.21 K, 30275 kPa	1089.77
346.22 K, 9873.1 kPa	1081.75
